Data from patent US8513238B2 (Hoffmann-La Roche Inc., priority 2010, dated 2013).

Molecular target: T1, human V1a receptor (Homo sapiens, UniProt P37288)
T1 construct: expressed in transfected cells; host or cells: HEK293 cells, transiently transfected; membranes prepared
Experiment: human V1a receptor binding (3H-Vasopressin SPA, HEK293 membranes)
Settings: membranes of HEK293 cells transiently transfected with human V1a receptor, Ki by Cheng-Prussoff, read-out: pKi (hV1a) (converted)
Summary of the method: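 HEK293 membranes transiently expressing cloned human V1a receptor, bound to yttrium silicate SPA beads in Tris/NaCl/KCl/CaCl2/MgCl2 buffer. Test compounds in 2% DMSO competed with 3H-vasopressin (4 nM solution added) for 1 h at room temperature; non-specific binding defined with cold vasopressin. IC50 from non-linear fit, Ki via Cheng-Prusoff.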

T1 sequence (P37288 whole entry): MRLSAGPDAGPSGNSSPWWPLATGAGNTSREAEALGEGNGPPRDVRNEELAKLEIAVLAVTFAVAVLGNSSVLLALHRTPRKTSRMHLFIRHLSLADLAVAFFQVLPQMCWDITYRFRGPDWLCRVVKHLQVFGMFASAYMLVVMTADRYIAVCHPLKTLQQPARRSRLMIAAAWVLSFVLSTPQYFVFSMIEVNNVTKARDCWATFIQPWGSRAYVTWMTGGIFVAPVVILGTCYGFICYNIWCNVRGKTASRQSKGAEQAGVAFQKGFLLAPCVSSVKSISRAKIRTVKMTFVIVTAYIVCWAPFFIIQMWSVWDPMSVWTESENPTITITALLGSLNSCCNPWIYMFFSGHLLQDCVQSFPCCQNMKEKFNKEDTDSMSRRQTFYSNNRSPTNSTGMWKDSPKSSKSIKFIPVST

First: CN1Cc2cc(Cl)ccc2-n2c(nnc2[C@H]2CC[C@H](n3cccn3)CC2)C1 [Example 111, trans-8-Chloro-5-methyl-1-(4-pyrazol-1-yl-cyclohexyl)-5,6-dihydro-4H-2,3,5,10b-tetraaza-benzo[e]azulene]
Second: CN1Cc2cc(Cl)ccc2-n2c(nnc2[C@H]2CC[C@@H](n3cccn3)CC2)C1 [Example 114, cis-8-Chloro-5-methyl-1-(4-pyrazol-1-yl-cyclohexyl)-5,6-dihydro-4H-2,3,5,10b-tetraaza-benzo[e]azulene]
The Ki of the first is 47-fold lower: 0.017 µM for the first, 0.794 µM for the second.

First: CC(C)(C)OC(=O)N1Cc2cc(Cl)ccc2-n2c(nnc2[C@H]2CC[C@@H](n3cccn3)CC2)C1 [Example 112, cis-8-Chloro-1-(4-pyrazol-1-yl-cyclohexyl)-4H,6H-2,3,5,10b-tetraaza-benzo[e]azulene-5-carboxylic acid tert-butyl ester]
Second: Cc1cc(C)n([C@H]2CC[C@H](c3nnc4n3-c3ccc(Cl)cc3CN(C(=O)OC(C)(C)C)C4)CC2)n1 [Example 115, trans-8-Chloro-1-[4-(3,5-dimethyl-pyrazol-1-yl)-cyclohexyl]-4H,6H-2,3,5,10b-tetraaza-benzo[e]azulene-5-carboxylic acid tert-butyl ester]
The Ki of the first is 450-fold higher: 0.0759 µM for the first, 0.00017 µM for the second.

Compared with `Clc1ccc2c(c1)CNCc1nnc([C@H]3CC[C@@H](n4cccn4)CC3)n1-2` [Example 113, cis-8-Chloro-1-(4-pyrazol-1-yl-cyclohexyl)-5,6-dihydro-4H-2,3,5,10b-tetraaza-benzo[e]azulene], `Cc1cc(C)n([C@H]2CC[C@H](c3nnc4n3-c3ccc(Cl)cc3CNC4)CC2)n1` [Example 116, trans-8-Chloro-1-[4-(3,5-dimethyl-pyrazol-1-yl)-cyclohexyl]-5,6-dihydro-4H-2,3,5,10b-tetraaza-benzo[e]azulene] is 11-fold lower in Ki: 0.794 µM for the first, 0.0724 µM for the second.

Compared with `Cc1cc(C)n([C@H]2CC[C@H](c3nnc4n3-c3ccc(Cl)cc3CN(C)C4)CC2)n1` [Example 117, trans-8-Chloro-1-[4-(3,5-dimethyl-pyrazol-1-yl)-cyclohexyl]-5-methyl-5,6-dihydro-4H-2,3,5,10b-tetraaza-benzo[e]azulene], `Cc1nn([C@H]2CC[C@H](c3nnc4n3-c3ccc(Cl)cc3CN(C)C4)CC2)c(C)c1C` [Example 120, trans-8-Chloro-1-[4-(3,4,5-trimethyl-pyrazol-1-yl)-cyclohexyl]-5-methyl-5,6-dihydro-4H-2,3,5,10b-tetraaza-benzo[e]azulene] is 3.5-fold lower in Ki: 0.00692 µM for the first, 0.00195 µM for the second.

First: Cc1nn([C@H]2CC[C@H](c3nnc4n3-c3ccc(Cl)cc3CN(C(=O)OC(C)(C)C)C4)CC2)c(C)c1C [Example 118, trans-8-Chloro-1-[4-(3,4,5-trimethyl-pyrazol-1-yl)-cyclohexyl]-4H,6H-2,3,5,10b-tetraaza-benzo[e]azulene-5-carboxylic acid tert-butyl ester]
Second: Cc1nn([C@H]2CC[C@H](c3nnc4n3-c3ccc(Cl)cc3CNC4)CC2)c(C)c1C [Example 119, trans-8-Chloro-1-[4-(3,4,5-trimethyl-pyrazol-1-yl)-cyclohexyl]-5,6-dihydro-4H-2,3,5,10b-tetraaza-benzo[e]azulene]
The Ki of the first is 2.6-fold lower: 0.000832 µM for the first, 0.00219 µM for the second.
